Laboratory results as given in patent US20040053972A1, “Medicinal compositions having improved absorbability” (priority 2000, published 2004).

Key:
[1] = biological target: T1, HER2 (Homo sapiens, UniProt P04626); assay: Inhibition of phosphorylation of receptor tyrosine (HER2) in human breast cancer cells MCF-7; assay type: cell-based; details: MCF-7 cells, test compound 2 hours, then heregulin 0.8 μg/mL for 5 minutes
T1 construct: amount of phosphorylation of HER2 tyrosine of the cells; endogenous in cells; host or cells: MCF-7 human breast cancer cell line
Description: Inhibition of Phosphorylation of Receptor Tyrosine in Human Breast Cancer Cells
In each well of a 24-well plate, 500 μl of the cell suspension ([…]) of human breast cancer cell line MCF-7 was seeded and incubated at 37° C. in a 5% carbon dioxide gas incubator. On the next day, 250 μl of a 4-fold serial dilution of a solution of a test compound was added to each well and, 2 hours later, 250 μl of a heregulin solution, which was adjusted so as to be the final concentration of 0.8 μg/mL, was added thereto. After 5 minutes, an extracting solution was added thereto to terminate the reaction as well as to extract a protein. The protein was fractionated by protein electrophoresis and the protein in the electrophoretic gel was transferred to a nylon filter. The filter was reacted with a phosphorylated tyrosine-specific antibody. The reaction product was fluorescence-labeled and was exposed to a photo-film. The intensity of the exposure on the photo-film was quantitated by an image-analyzing apparatus.

[2] = test system: human breast cancer cell line BT-474; assay: In vitro inhibition of growth of breast cancer cell BT-474; assay type: cell-based; details: 120 h, BT-474 cells, heregulin, cultured for 5 days, SRB staining
Description: In vitro Inhibition of Growth of Breast Cancer Cell BT-474
In each well of a 96-well microtiter plate, 100 μl (containing 1,000 cells) of a cell suspension of human breast cancer cell line BT-474 was seeded and incubated at 37° C. in a 5% carbon dioxide gas incubator. On the next day, 100 μl of the 2-fold serial dilution of a solution of each test compound prepared by using 250 μl of a heregulin solution, which was adjusted so as to be the final concentration of 0.8 μg/mL, was added to each well and cultured for 5 days. The solution containing the test compound was removed and the cells were washed and fixed with a 50% trichloroacetic acid solution. To the cells was added a 0.4% (W/V) solution of pigment SRB (dissolved in 1% acetic acid) to fix as well as stain the cell protein (Skehan P. et al., Journal of the National Cancer Institute Vol. 82, pp. 1107-1112, 1990). The pigment solution was removed and the remainder was washed with a 1% acetic acid solution. Then, 100 μl of an extracting solution (10 mM Tris buffer) was added thereto to extract the pigment. The optical density of the extract at the wavelength of 550 nm was measured to determine the amount of the cells in terms of the amount of the protein. The proportion of the amount of remaining protein of each treated group was determined by taking the amount of protein of the control to which no solution of a test compound was added as 100% to calculate the value of the concentration of the compound required for inhibiting the remaining cells by 50% of that of the control (IC50)

[3] = test system: Human breast cancer cell line BT-474; assay: In vivo breast cancer inhibiting effect (BT-474 implanted in nude mice); details: nude mice with BT-474 tumors, orally twice daily 30 mg/kg body weight for 10 days
Description: In Vivo Breast Cancer Inhibiting Effect
Human breast cancer cell line BT-474 (5,000,000 cells) were suspended in a gel-matrix solution. The suspension was subcutaneously implanted in the breast of 6-week-old female Balb/C strain nude mice (Friedman R. et al., Proceedings of the National Academy of Sciences of the U.S.A. Vol. 87, pp. 6698-6702, 1990). At the time of the implantation and seven days after the implantation, an estradiol dipropionate solution (5 mg/mL) was intramuscularly administered to the hind leg for the purpose of enhancing a take ratio of tumors. Fourteen days after the implantation, the diameters of tumors were determined. For the experiment were used 5 mice per group with similar tumor size. Each of compounds (4, 6, 14, 17, 19, 20, 23, 24 and 26) of the present invention was suspended in a 5% gum arabic solution (physiological saline) and administered orally twice daily in dose of 30 mg/kg body weight for 10 days. On the day when the administration was terminated, the diameters of tumors were measured. Tumor volume was calculated by the following equation.
Volume of tumor=longest diameter×shortest diameter×shortest diameter×½
The growth rate of tumors was calculated as the proportion of the value obtained by subtracting the initial volume from the final volume in the group to which the drug was administered, to the value obtained by subtracting the initial volume from the final volume in the control group to which a gum arabic solution was administered.

[4] = Measurement of size of crystalline particulate (laser diffraction/scattering); assay type: physicochemical; details: distilled water as dispersion medium, SALD-2000A
Description: The average particle size can be measured by using a per se known method and a measuring equipment. The term “average particle size” refers to a volume-average particle size as measured, for example, by a laser diffraction/scattering particle size distribution measuring apparatus (for example, SALD-2000A manufactured by Shimadzu Corporation). The particle size is usually measured by uniformly dispersing a HER2 inhibitor suspension at a concentration of about 1 to 100 μg/ml at room temperature while being subjected to ultra-sonication for a short period of time such as within 1 minute, or while stirring using a vortex mixer. The aqueous solvent used in the measurement is usually water, but buffer solutions having various pH's, a pseudo-body fluid and 0.5% methyl cellulose solution may be used. […]
The size of fine particles in the suspension of the drug of crystalline particulate obtained in Example 1 was measured. […] Further, the size of particles obtained by comminuting bulk of the compound of Reference Example B4, which was used in Example 1, with a jet mill was measured in the same manner.
The size of fine particles in the suspension of the drug of crystalline particulate obtained in Example 4a was measured. […] Further, crystalline particulate obtained in Example 8a were dispersed again in distilled water and the size of fine particles of the drug was measured in the same manner.

T1 sequence (P04626 23-1255): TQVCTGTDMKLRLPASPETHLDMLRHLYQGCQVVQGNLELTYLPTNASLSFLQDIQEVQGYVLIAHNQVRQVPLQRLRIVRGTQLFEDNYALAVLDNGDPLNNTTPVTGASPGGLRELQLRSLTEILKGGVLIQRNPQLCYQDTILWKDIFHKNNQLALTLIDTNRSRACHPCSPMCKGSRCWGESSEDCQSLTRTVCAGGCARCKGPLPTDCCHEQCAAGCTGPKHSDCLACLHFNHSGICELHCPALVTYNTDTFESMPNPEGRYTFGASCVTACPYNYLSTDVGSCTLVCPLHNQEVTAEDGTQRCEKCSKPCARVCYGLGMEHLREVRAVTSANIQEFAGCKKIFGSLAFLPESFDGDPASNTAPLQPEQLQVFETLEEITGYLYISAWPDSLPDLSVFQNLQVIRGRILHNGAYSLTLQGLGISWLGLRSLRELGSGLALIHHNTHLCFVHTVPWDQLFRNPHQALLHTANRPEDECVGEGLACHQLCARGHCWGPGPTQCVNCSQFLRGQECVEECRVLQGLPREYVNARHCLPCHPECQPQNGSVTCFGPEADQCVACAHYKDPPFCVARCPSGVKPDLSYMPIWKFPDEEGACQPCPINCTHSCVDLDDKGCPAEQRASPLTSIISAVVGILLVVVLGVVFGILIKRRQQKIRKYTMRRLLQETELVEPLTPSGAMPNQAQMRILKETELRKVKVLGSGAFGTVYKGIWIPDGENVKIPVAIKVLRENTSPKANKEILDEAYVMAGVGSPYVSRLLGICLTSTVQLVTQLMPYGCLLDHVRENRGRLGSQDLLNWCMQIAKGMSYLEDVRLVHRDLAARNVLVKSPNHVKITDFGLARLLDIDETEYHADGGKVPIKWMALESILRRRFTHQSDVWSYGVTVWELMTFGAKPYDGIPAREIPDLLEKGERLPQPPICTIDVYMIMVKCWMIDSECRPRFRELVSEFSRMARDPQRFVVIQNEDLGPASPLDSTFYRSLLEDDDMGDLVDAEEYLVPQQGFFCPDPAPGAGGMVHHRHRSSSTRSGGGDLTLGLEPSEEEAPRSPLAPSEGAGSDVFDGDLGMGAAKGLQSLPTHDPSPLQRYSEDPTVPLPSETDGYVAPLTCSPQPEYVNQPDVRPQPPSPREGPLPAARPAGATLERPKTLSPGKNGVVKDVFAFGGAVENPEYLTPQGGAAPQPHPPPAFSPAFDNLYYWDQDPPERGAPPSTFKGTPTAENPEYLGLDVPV

FC(F)(F)c1ccc(/C=C/c2nc(COc3ccc(CCCCn4ccnn4)cc3)co2)cc1 [Reference Example B4, 1-(4-{4-[(2-{(E)-2-[4-(Trifluoromethyl)phenyl]ethenyl}-1,3-oxazol-4-yl)methoxy]phenyl}butyl)-1H-1,2,3-triazole]
IC50 [1]: 0.1 µM | IC50 [2]: < 0.05 µM | Inhibition ratio (%) [3]: 5% | Average particle size (μm) [4]: ≤ 4 μm | Average particle size (μm) ([4]; listed as Reference Example 4B): 3.85 μm
